# Test results reported in patent publication US5602141A, “Camptothecin derivatives and process for their preparation” (Pharmacia & Upjohn S.P.A., priority 1994, dated 1997).
# pIC50: −log10 of the molar value.
# Key:
# Topoisomerase I = conditions: Wani et al. 1987; Hsiang et al. 1989; cited from earlier work
# [1] = Slichenmyer et al. 1993; cited from earlier work
# [2] = tested on: L1210 murine leukemia cells; test: Method (a): cytotoxic activity on L1210 murine leukemia cells, 48 h exposure, Coulter Counter; format: cell-based; conditions: Mus musculus, 48 h at 37° C., mean of 3 different experiments, read-out: IC50 (dose causing 50% inhibition of cell growth relative to untreated controls)
# Method: Method (a): Evaluation of Cytotoxic Activity
# L1210 murine leukemia cells were grown in vitro as a stationary suspension in RPMI 1640 medium supplemented with 10% fetal calf serum, 2 mM L-glutamine, 10 μM B-mercaptoethanol, 100 UI/ml penicillin and 100 μg streptomycin. For assaying the cytotoxic activity, exponentialily growing cells were seeded at the concentration of 1×10^5 cells/ml and exposed to graded doses of the compounds under evaluation for 48 h at 37° C. in an humidified atmosphere of 5% CO2. The number of surviving cells was determined with a Coulter Counter; results are expressed as IC50 (dose causing 50% inhibition of cell growth in treated cultures relative to untreated controls after 48 h treatment).
# In this assay, 9-(iminomethyl-amino)-camptothecin (internal code FCE 28536) and 9-(dimethylamino-methyleneamino)-camptothecin (internal code FCE 29006) were tested and the obtained results, which represent the mean of 3 different experiments, are reported on Table 2 below.
# L1210 murine leukemia = test: Method (b): antitumor (antileukemic) activity, L1210 murine leukemia implanted ip into CD2F1 mice, median survival time; format: in vivo; conditions: 24 h after tumor cells implant (day 1)
# Method: Method (b): Evaluation of Antitumor Activity
# L1210 murine leukemia was maintained in DBA2 mice by weekly ip transplants of 10^5 cells/mouse. For assaying the antileukemic activity, […] were implanted ip into CD2F1 mice; graded doses of the compounds under evaluation were administered ip 24 h after tumor cells implant on day 1 controls receiving vehicle alone.
# The activity of the drugs was determined evaluating the median survival time (MST) of each group of mice.
# The obtained results, expressed as % T/C, are reported on Table 3 below.
structure (smiles),measurement,setting,value
"CC[C@@]1(O)C(=O)OCc2c1cc1n(c2=O)Cc2cc3ccccc3nc2-1 [Camptothecin, camptothecin]",antitumor activity by the inhibition of Topoisomerase I,Topoisomerase I,potent antitumor activity by the inhibition of Topoisomerase I
same,solubility in aqueous solutions,[1],low solubility in aqueous solutions
CC[C@@]1(O)C(=O)OCc2c1cc1n(c2=O)Cc2cc3c(N)cccc3nc2-1 [9-amino camptothecin],antitumor activity by the inhibition of Topoisomerase I,Topoisomerase I,potent antitumor activity by the inhibition of Topoisomerase I
same,solubility in aqueous solutions,[1],low solubility in aqueous solutions
"CC[C@@]1(O)C(=O)OCc2c1cc1n(c2=O)Cc2cc3c(N=CN(C)C)cccc3nc2-1 [FCE 29006, 9-(dimethylamino-methyleneamino)-camptothecin]",pIC50,[2],6.92
same,% T/C (MST treated mice/MST control mice × 100),L1210 murine leukemia; 5 mg/kg ip,150%
same,% T/C (MST treated mice/MST control mice × 100),L1210 murine leukemia; 10 mg/kg ip,163%
same,% T/C (MST treated mice/MST control mice × 100),L1210 murine leukemia; 15 mg/kg ip,175%
"CC[C@@]1(O)C(=O)OCc2c1cc1n(c2=O)Cc2cc3c(NC=N)cccc3nc2-1 [FCE 28536, 9-(iminomethyl-amino)-camptothecin]",pIC50,[2],7.09
same,% T/C (MST treated mice/MST control mice × 100),L1210 murine leukemia; 5 mg/kg ip,150-163%
same,% T/C (MST treated mice/MST control mice × 100),L1210 murine leukemia; 10 mg/kg ip,188%
